Among the data in ChEMBL document CHEMBL4304762, “De Novo Design of Boron-Based Peptidomimetics as Potent Inhibitors of Human ClpP in the Presence of Human ClpX” (J Med Chem, 2019) are IC50 values, retold here.

The nature of assay [1]: Inhibition of human ClpP expressed in Escherichia coli SG1146 cells/His6-tagged TEV-fused human ClpX expressed in Escherichia coli B21 Gold DE3 cells complex formation using FITC-casein as substrate incubated for 60 mins and measured at 20 secs time interval for 90 mins by fluorescence assay.
Assay [2] concerns the target ATP-dependent Clp protease proteolytic subunit, mitochondrial (Homo sapiens, UniProt Q16740). In words: Inhibition of human ClpP expressed in Escherichia coli SG1146 cells using N-acetyl-Trp-Leu-Ala-AMC as substrate incubated for 1 hr and measured at 20 secs time interval for 90 mins by fluorescence assay.

Chain of ATP-dependent Clp protease proteolytic subunit, mitochondrial (Q16740 whole entry): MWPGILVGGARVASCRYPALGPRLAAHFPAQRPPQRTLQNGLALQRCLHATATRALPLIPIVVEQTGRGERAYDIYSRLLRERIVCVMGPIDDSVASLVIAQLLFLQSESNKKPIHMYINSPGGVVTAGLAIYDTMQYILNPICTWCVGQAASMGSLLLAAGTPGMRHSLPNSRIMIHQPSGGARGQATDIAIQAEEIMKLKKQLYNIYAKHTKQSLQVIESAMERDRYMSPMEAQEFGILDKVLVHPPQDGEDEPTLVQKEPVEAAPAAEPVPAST

Consider `CC(C)C[C@H](NC(=O)[C@H](CC(C)C)NC(=O)c1ccc(F)c([N+](=O)[O-])c1)B(O)O`, for which the IC50 (as a rule, the concentration that gives 50% inhibition) in assay [1] came to 1000 nM. As to `COc1ccc(C(=O)NC(CC(C)C)C(=O)NC(Cc2ccccc2)B(O)O)c(Cl)c1` (stereo unspecified), the IC50 result was “Not Active” in assay [2] and 118000 nM in assay [2] (read-out: IC50). In assay [1], `CC(C)C[C@H](NC(=O)[C@H](CC(C)C)NC(=O)c1ccccc1-c1ccccc1)B(O)O` showed an IC50 of 900 nM. In assay [1], `COc1ccc(C(=O)N[C@@H](CC(C)C)C(=O)N[C@@H](CC(C)C)B(O)O)c(Cl)c1` gave an IC50 of 800 nM. `CC(C)CC(NC(=O)C(CC(C)C)NC(=O)C1(c2ccccc2)CC1)B(O)O` (stereo unspecified): in assay [2], the IC50 result is given as “Not Active”.
